Structures can show the parent of a compound that is named as a salt. Where two headings read alike, the source gives them in different places.
How the values were obtained:
human hepatocytes = experiment: Cell viability of human hepatocytes (Compound 2); assay type: cell-based
[1] = Plasma concentrations of Compound 2 in non-human primates; assay type: in vivo; conditions: NHPs, 3-30 mg/kg oral once daily for 5 days
Experimental: (§1) NTCP and the related BA transporter apical sodium-dependent BA transporter (ASBT) from human were expressed in cell lines. Inhibition by Compound 2 was studied using [^3]taurocholate as substrate. Cryopreserved human hepatocytes infected with a clinical isolate of HBV were used for infection experiments. Two female non-human primates (NHPs) were dosed with Compound 2 via oral gavage at dose levels of Compound 2 ranging between 3-30 mg/kg once daily for 5 days. Total serum, urine, and fecal BAs were analyzed enzymatically and Compound 2 plasma concentrations were assessed via liquid chromatography-tandem mass spectrometry. The oral pharmacokinetics of Compound 2 was also studied in mice, rats, and dogs.

ASBT = biological target: T1, ASBT (Homo sapiens, UniProt Q12908); experiment: [3H]taurocholate uptake in cell lines expressing human ASBT (Compound 2); assay type: cell-based
T1 construct: expressed in transfected cells
T1 sequence (Q12908 1-348): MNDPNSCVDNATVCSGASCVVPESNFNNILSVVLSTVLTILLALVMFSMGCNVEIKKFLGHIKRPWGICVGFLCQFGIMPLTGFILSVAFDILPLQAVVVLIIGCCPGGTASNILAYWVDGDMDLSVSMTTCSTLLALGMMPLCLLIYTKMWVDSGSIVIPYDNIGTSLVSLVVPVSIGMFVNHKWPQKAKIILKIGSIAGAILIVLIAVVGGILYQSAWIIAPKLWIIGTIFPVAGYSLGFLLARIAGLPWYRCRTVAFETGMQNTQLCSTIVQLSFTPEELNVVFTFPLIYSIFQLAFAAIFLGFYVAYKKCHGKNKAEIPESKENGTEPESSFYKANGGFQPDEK
Experimental: as §1

Human NTCP = biological target: T2, Human NTCP (Homo sapiens, UniProt Q14973); experiment: [3H]taurocholate uptake in cell lines expressing human NTCP (Compound 2); assay type: cell-based
T2 construct: expressed in transfected cells; peptide purchased from Pharmaron
T2 sequence (Q14973 1-349): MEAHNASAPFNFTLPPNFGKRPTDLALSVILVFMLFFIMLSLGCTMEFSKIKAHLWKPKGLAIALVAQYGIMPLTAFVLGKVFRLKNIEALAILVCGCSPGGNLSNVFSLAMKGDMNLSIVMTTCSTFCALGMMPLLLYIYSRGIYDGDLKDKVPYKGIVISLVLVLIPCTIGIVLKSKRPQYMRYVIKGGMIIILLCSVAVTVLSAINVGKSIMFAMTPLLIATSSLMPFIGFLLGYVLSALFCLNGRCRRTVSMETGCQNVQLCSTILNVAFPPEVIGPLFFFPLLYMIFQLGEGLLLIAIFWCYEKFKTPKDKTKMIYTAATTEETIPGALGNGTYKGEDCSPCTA
Experimental: as §1

[2] = Oral pharmacokinetics of Compound 2 in mice, rats and dogs; assay type: in vivo; conditions: across all species
Experimental: as §1

HBV (clinical isolate) = experiment: HBV infection of cryopreserved human hepatocytes (Compound 2); assay type: cell-based; conditions: Hepatitis B virus, Hepatocyte
Experimental: as §1

[3] = Serum, urine and fecal bile acids and C4 in non-human primates after oral dosing; assay type: in vivo; conditions: NHPs
Experimental: as §1

[4] = XTT cell toxicity in primary human hepatocytes; assay type: cell-based; conditions: human, primary human hepatocytes, read-out: TC50
Experimental: Multiplicity of Infection (MOI) is defined as the number of HBV genome equivalents, as determined by the qPCR quantitation, added per cell in the respective growth format. The overnight media was removed from the cells and replaced with 190 μL of new, serum-free HI media/4% PEG8000 and 10 μL of the diluted virus stock (HepG2 AD38 genotype D) for a MOI of 500. Medium alone was added to the cells containing compound for the parallel cytotoxicity evaluation. After 18 hours of virus infection, the cells were gently washed five times with DPBS, followed by a new addition of 200 μL HI media containing compounds on day 1, day 4 and day 7 post-infection. In one set of experiments (Study #01), the effect of giving compound 18 h prior to infection, versus 18 h post-infection was studied. The supernatant removed from the cytotoxicity plates at each medium change was stored at −20° C. for shipment to the client. The supernatant was collected at 10 days post infection and stored at −20° C. for total extracellular HBV DNA copy number to be quantitatively determined by qPCR. Cell viability was measured by XTT tetrazolium dye at day 10 for the cytotoxicity plates.
Following incubation at 37° C. in a 5% CO2 incubator for ten days, the test plates were stained with the tetrazolium dye XTT (2,3-bis(2-methoxy-4-nitro-5-sulfophenyl}-5-[(phenylamino)carbonyl]-2H-tetrazolium hydroxide). XTT-tetrazolium was metabolized by the mitochondrial enzymes of metabolically active cells to a soluble formazan product. XTT solution was prepared daily as a stock of 1 mg/mL in RPMI1640. Phenazine methosulfate (PMS) solution was prepared at 0.15 mg/mL in PBS and stored in the dark at −20° C.
XTT/PMS stock was prepared immediately before use by adding 40 μL of PMS per mL of XTT solution. Fifty microliters of XTT/PMS were added to each well of the plate and the plate was re-incubated for 4 hours at 37° C. Plates were sealed with adhesive plate sealers and shaken gently or inverted several times to mix the soluble formazan product and the plate was read spectrophotometrically at 450/650 nm with a Molecular Devices Vmax plate reader.
Each concentration of inhibitor and controls were analyzed in triplicate for HBV DNA copies and for cellular toxicity, respectively. From control wells without inhibitor, the mean of these three replicates was calculated and the HBV DNA mean was set to 100% viral control and the XTT mean was set to 100% cell viability. The effect of compound was then expressed as % of viral control and % cell viability, respectively.

[5] = system: HBV (HepG2 AD38 genotype D); experiment: HBV infection of primary human hepatocytes, extracellular HBV DNA by qPCR; assay type: cell-based, hepatitis B virus; conditions: for EC50: Hepatitis B virus, read-out: EC50

In the case of CCCCC1CN(c2ccc(F)cc2)c2cc(SC)c(OCC(C)(C)C(=O)O)cc2S(=O)(=O)N1C (stereo not drawn) [Compound 2, 3-((3-butyl-5-(4-fluorophenyl)-2-methyl-7-(methylthio)-1,1-dioxido-2,3,4,5-tetrahydro-1,2,5-benzothiadiazepin-8-yl)oxy)-2,2-dimethylpropanoic acid], the “effect on cell viability” value (human hepatocytes) is reported as “without affecting cell viability”, the “plasma exposure versus dose” value [1] is reported as “increased with dose” and the IC50 (ASBT) is reported as 193 nM. For the same compound, the IC50 (Human NTCP) was 3.4 nM, the oral bioavailability [2] was “Good oral bioavailability” and the IC50 (HBV (clinical isolate)) was 13.5 nM. For the same compound, the “levels of fecal BAs” value [3] was “did not change”, the “urine excretion of BAs compared with vehicle” value [3] was “tended to increase” and the “serum BAs at 24 hours post-dose” value ([3]; 10 mg/kg) was “returned to baseline”. For the same compound, the “serum BAs at 24 hours post-dose” value ([3]; 30 mg/kg) was “still being elevated”, the “duration of increases in serum BAs” value ([3]; 10 and 30 mg/kg, Day 1 and Day 5) was “at least 8 hours” and the “levels of 7-alpha-hydroxy-4-cholesten-3-one (C4)” value ([3]; after 5 days of repeated dosing) was “did not change”. The “serum BAs” value ([3]; oral dosing, Day 1 and Day 5) was “increased in a dose-dependent manner”.

CC(C)OC(=O)OCOP(=O)(CO[C@H](C)Cn1cnc2c(N)ncnc21)OCOC(=O)OC(C)C [Tenofovir disoproxil fumarate, reference compound] showed a CC50 at 10 days ([4]; Study #01, 18 h post-infection section) of over 1000 nM, a CC50 at 10 days ([4]; Study #01, XTT, PHH) of over 1000 nM and a CC50 at 10 days ([4]; Study #02) of over 100 nM. The CC50 at 10 days ([4]; Study #03) was over 100 nM, the EC50 ([5]; HepG2, 18 h, Study #01, compound given 18 h post-infection) was 20 nM and the EC50 ([5]; HepG2, Study #01, compound given 18 h prior to infection, PHH, HBV DNA) was 43 nM. The EC50 ([5]; HepG2, Study #02, PHH) was 64 nM, the EC50 ([5]; HepG2, Study #03, PHH) was 59 nM and the “antiviral activity/potency when given 18 h post-infection” value ([5]; Study #01) was “maintained”. For the same compound, the Max inhibition ([5]; Study #01, 18 h post-infection) was 97%, the Max inhibition ([5]; Study #01, 18 h prior to infection) was 96% and the Max inhibition ([5]; Study #02) was 68%. It also gave a Max inhibition ([5]; Study #03) of 61% and a Max inhibition ([5]; Study #03, listed as tenofovir) of about 60%.

Source: US20230398125A1, “TREATING HEPATITIS” (Albireo AB, priority 2022, published 2023)
